Source: ChEMBL document CHEMBL3997804, “Evaluation of a series of 2-napthamide derivatives as inhibitors of the drug efflux pump AcrB for the reversal of antimicrobial resistance” (Bioorg Med Chem Lett, 2017)
Activity calls are given as the source filed them. No cut-off for these calls is given here.

Key:
[1] = system: Escherichia coli BW25113; assay: Inhibition of […] in drug resistant Escherichia coli BW25113 assessed as increase in outer membrane permeability by measuring increase nitrocefin hydrolysis at 512 ug/ml measured over 30 mins in presence of CCCP by spectrophotometric method
[2] = system: Escherichia coli; assay: Growth inhibition of wild-type drug-resistant Escherichia coli BW25113 after 18 hrs by resazurin dye based broth microdilution method
[3] = system: Escherichia coli; assay: Growth inhibition of drug-sensitive AcrB-deficient Escherichia coli BW25113 at 1024 ug/ml after 18 hrs by resazurin dye based broth microdilution method
[4] = system: Escherichia coli BW25113; assay: Inhibition of AcrB in wild-type drug resistant Escherichia coli BW25113 assessed as potentiation of erythromycin-induced antibacterial activity by measuring erythromycin MIC at 128 ug/ml after 18 hrs by checkerboard method (reference value: 128 ug/ml)
[5] = system: Escherichia coli BW25113; assay: Inhibition of AcrB in wild-type drug resistant Escherichia coli BW25113 assessed as potentiation of chloramphenicol-induced antibacterial activity by measuring chloramphenicol MIC at 128 ug/ml after 18 hrs by checkerboard method (reference value: 8 ug/ml)
[6] = system: Escherichia coli BW25113; assay: Inhibition of AcrB in wild-type drug resistant Escherichia coli BW25113 assessed as potentiation of tetraphenyl phosphonium chloride-induced antibacterial activity by measuring tetraphenyl phosphonium chloride MIC at 128 ug/ml after 18 hrs by checkerboard method (reference value: 1024 ug/ml)
[7] = system: Escherichia coli; assay: Effect on rifampicin-induced antibacterial activity against wild-type drug resistant Escherichia coli BW25113 assessed as rifampicin MIC at 128 ug/ml after 18 hrs by checkerboard method (reference value: 16 ug/ml); format: functional; settings: BW25113, 18 h
[8] = system: Escherichia coli; assay: Potentiation of erythromycin-induced antibacterial activity against AcrB-deficient Escherichia coli BW25113 assessed as erythromycin MIC at 128 ug/ml after 18 hrs by checkerboard method (reference value: 16 ug/ml); format: functional; settings: BW25113, 18 h
[9] = system: Escherichia coli; assay: Potentiation of chloramphenicol-induced antibacterial activity against AcrB-deficient Escherichia coli BW25113 assessed as chloramphenicol MIC at 128 ug/ml after 18 hrs by checkerboard method (reference value: 2 ug/ml); format: functional; settings: BW25113, 18 h
[10] = system: Escherichia coli; assay: Potentiation of tetraphenyl phosphonium chloride-induced antibacterial activity against AcrB-deficient Escherichia coli BW25113 assessed as tetraphenyl phosphonium chloride MIC at 128 ug/ml after 18 hrs by checkerboard method (reference value: 64 ug/ml); format: functional; settings: BW25113, 18 h
[11] = system: Escherichia coli; assay: Effect on rifampicin-induced antibacterial activity against AcrB-deficient Escherichia coli BW25113 assessed as rifampicin MIC at 128 ug/ml after 18 hrs by checkerboard method (reference value: 16 ug/ml); format: functional; settings: BW25113, 18 h
[12] = system: Escherichia coli BW25113; assay: Inhibition of AcrB in wild-type drug resistant Escherichia coli BW25113 assessed as potentiation of erythromycin-induced antibacterial activity by measuring erythromycin MIC at 256 ug/ml after 18 hrs by checkerboard method (reference value: 128 ug/ml)
[13] = system: Escherichia coli BW25113; assay: Inhibition of AcrB in wild-type drug resistant Escherichia coli BW25113 assessed as potentiation of chloramphenicol-induced antibacterial activity by measuring chloramphenicol MIC at 256 ug/ml after 18 hrs by checkerboard method (reference value: 8 ug/ml)
[14] = system: Escherichia coli BW25113; assay: Inhibition of AcrB in wild-type drug resistant Escherichia coli BW25113 assessed as potentiation of tetraphenyl phosphonium chloride-induced antibacterial activity by measuring tetraphenyl phosphonium chloride MIC at 256 ug/ml after 18 hrs by checkerboard method (reference value: 1024 ug/ml)
[15] = system: Escherichia coli; assay: Effect on rifampicin-induced antibacterial activity against wild-type drug resistant Escherichia coli BW25113 assessed as rifampicin MIC at 256 ug/ml after 18 hrs by checkerboard method (reference value: 16 ug/ml); format: functional; settings: BW25113, 18 h
[16] = system: Escherichia coli; assay: Potentiation of erythromycin-induced antibacterial activity against AcrB-deficient Escherichia coli BW25113 assessed as erythromycin MIC at 256 ug/ml after 18 hrs by checkerboard method (reference value: 16 ug/ml); format: functional; settings: BW25113, 18 h
[17] = system: Escherichia coli; assay: Potentiation of chloramphenicol-induced antibacterial activity against AcrB-deficient Escherichia coli BW25113 assessed as chloramphenicol MIC at 256 ug/ml after 18 hrs by checkerboard method (reference value: 2 ug/ml); format: functional; settings: BW25113, 18 h
[18] = system: Escherichia coli; assay: Potentiation of tetraphenyl phosphonium chloride-induced antibacterial activity against AcrB-deficient Escherichia coli BW25113 assessed as tetraphenyl phosphonium chloride MIC at 256 ug/ml after 18 hrs by checkerboard method (reference value: 64 ug/ml); format: functional; settings: BW25113, 18 h
[19] = system: Escherichia coli; assay: Effect on rifampicin-induced antibacterial activity against AcrB-deficient Escherichia coli BW25113 assessed as rifampicin MIC at 256 ug/ml after 18 hrs by checkerboard method (reference value: 16 ug/ml); format: functional; settings: BW25113, 18 h
[20] = system: Escherichia coli BW25113; assay: Inhibition of AcrB in wild-type drug resistant Escherichia coli BW25113 assessed as potentiation of erythromycin-induced antibacterial activity by measuring erythromycin MIC at 512 ug/ml after 18 hrs by checkerboard method (reference value: 128 ug/ml)
[21] = system: Escherichia coli BW25113; assay: Inhibition of AcrB in wild-type drug resistant Escherichia coli BW25113 assessed as potentiation of chloramphenicol-induced antibacterial activity by measuring chloramphenicol MIC at 512 ug/ml after 18 hrs by checkerboard method (reference value: 8 ug/ml)
[22] = system: Escherichia coli BW25113; assay: Inhibition of AcrB in wild-type drug resistant Escherichia coli BW25113 assessed as potentiation of tetraphenyl phosphonium chloride-induced antibacterial activity by measuring tetraphenyl phosphonium chloride MIC at 512 ug/ml after 18 hrs by checkerboard method (reference value: 1024 ug/ml)
[23] = system: Escherichia coli; assay: Effect on rifampicin-induced antibacterial activity against wild-type drug resistant Escherichia coli BW25113 assessed as rifampicin MIC at 512 ug/ml after 18 hrs by checkerboard method (reference value: 16 ug/ml); format: functional; settings: BW25113, 18 h
[24] = system: Escherichia coli; assay: Potentiation of erythromycin-induced antibacterial activity against AcrB-deficient Escherichia coli BW25113 assessed as erythromycin MIC at 512 ug/ml after 18 hrs by checkerboard method (reference value: 16 ug/ml); format: functional; settings: BW25113, 18 h
[25] = system: Escherichia coli; assay: Potentiation of chloramphenicol-induced antibacterial activity against AcrB-deficient Escherichia coli BW25113 assessed as chloramphenicol MIC at 512 ug/ml after 18 hrs by checkerboard method (reference value: 2 ug/ml); format: functional; settings: BW25113, 18 h
[26] = system: Escherichia coli; assay: Potentiation of tetraphenyl phosphonium chloride-induced antibacterial activity against AcrB-deficient Escherichia coli BW25113 assessed as tetraphenyl phosphonium chloride MIC at 512 ug/ml after 18 hrs by checkerboard method (reference value: 64 ug/ml); format: functional; settings: BW25113, 18 h
[27] = system: Escherichia coli; assay: Effect on rifampicin-induced antibacterial activity against AcrB-deficient Escherichia coli BW25113 assessed as rifampicin MIC at 512 ug/ml after 18 hrs by checkerboard method (reference value: 16 ug/ml); format: functional; settings: BW25113, 18 h
[28] = system: Escherichia coli BW25113; assay: Inhibition of AcrB in wild-type drug resistant Escherichia coli BW25113 assessed as potentiation of erythromycin-induced antibacterial activity by measuring FICI at 128 to 512 ug/ml after 18 hrs by checkerboard method
[29] = system: Escherichia coli BW25113; assay: Inhibition of AcrB in wild-type drug resistant Escherichia coli BW25113 assessed as potentiation of chloramphenicol-induced antibacterial activity by measuring FICI at 128 to 512 ug/ml after 18 hrs by checkerboard method
[30] = system: Escherichia coli BW25113; assay: Inhibition of AcrB in wild-type drug resistant Escherichia coli BW25113 assessed as potentiation of tetraphenyl phosphonium chloride-induced antibacterial activity by measuring FICI at 128 to 512 ug/ml after 18 hrs by checkerboard method
[31] = system: Escherichia coli BW25113; assay: Inhibition of AcrB in wild-type drug resistant Escherichia coli BW25113 assessed as reduction in nile red efflux at 50 uM pretreated for 15 mins followed by nile red addition measured after 3 hrs for 200 secs in presence of glucose by fluorimetric method
[32] = system: Escherichia coli BW25113; assay: Inhibition of AcrB in drug resistant Escherichia coli BW25113 assessed as reduction in nile red efflux at 100 uM pretreated for 15 mins followed by nile red addition measured after 3 hrs for 200 secs in presence of glucose by fluorimetric method
[33] = system: Escherichia coli; assay: Disruption of inner membrane potential in drug resistant Escherichia coli BW25113 at 512 ug/ml incubated for 10 mins measured for 60 secs by DiOC2(3) dye based fluorimetric method; format: functional
[34] = system: HepG2; assay: Cytotoxicity against human HepG2 cells at 512 to 1024 ug/ml measured every 60 mins for 20 hrs by RealTime-Glo MT cell viability assay; format: cell-based; settings: hepg2, 20 h
[35] = system: HEK293; assay: Cytotoxicity against HEK293 cells at 512 to 1024 ug/ml measured every 60 mins for 20 hrs by RealTime-Glo MT cell viability assay; format: cell-based; settings: human, hek293, 20 h

SMILES: CC(C)CCOc1cc(C(N)=O)cc2ccccc12
- inhibition [1]: inactive
- growth inhibition (GI) [2]: Non-Toxic
- growth inhibition (GI) [3]: Toxic
- MIC [4]: 128 µg/mL
- MIC [5]: 8 µg/mL
- MIC [6]: 1020 µg/mL
- MIC [7]: 16 µg/mL
- MIC [8]: 16 µg/mL
- MIC [9]: 2 µg/mL
- MIC [10]: 64 µg/mL
- MIC [11]: 16 µg/mL
- MIC [12]: 64 µg/mL
- MIC [13]: 4 µg/mL
- MIC [14]: 512 µg/mL
- MIC [15]: 16 µg/mL
- MIC [16]: 16 µg/mL
- MIC [17]: 2 µg/mL
- MIC [18]: 64 µg/mL
- MIC [19]: 16 µg/mL
- MIC [20]: 16 µg/mL
- MIC [21]: 2 µg/mL
- MIC [22]: 128 µg/mL
- MIC [23]: 16 µg/mL
- MIC [24]: 16 µg/mL
- MIC [25]: 2 µg/mL
- MIC [26]: 64 µg/mL
- MIC [27]: 16 µg/mL
- fractional inhibitory concentration index (FICI) [28]: 0.25
- fractional inhibitory concentration index (FICI) [29]: 0.25
- fractional inhibitory concentration index (FICI) [30]: 0.25
- inhibition [31]: Active
- inhibition [32]: Active
- Activity [33]: inactive
- Activity [34]: Non-Toxic
- Activity [35]: Non-Toxic
